Our source for the KD and KD1 values is paper PMC6061857 (2018).

The subject of assay [1] is 35-GT (DNA, aptamer) GGGAGACAAGGAAAATCCTTCAATGAAGTGGGTCT
Nature of the assay: ITC. Conditions: 10 mM Tris, pH 7.4, 23 °C.

In assay [2] the test system is 38-GT (DNA, aptamer) GGGAGACAAGGAAAATCCTTCAATGAAGTGGGTCTCCC
Nature of the assay: ITC. Conditions: 10 mM Tris, pH 7.4, 23 °C.

For assay [3], the system named is ATP-33 (DNA, aptamer) CGCACCTGGGGGAGTATTGCGGAGGAAGGTGCG
Nature of the assay: ITC, two-site sequential binding. Conditions: 10 mM Mg2+; 10 mM Tris, pH 7.4, 23 °C; site 1 of 2 (KD2 12.3 ± 0.6 μM).

In assay [4] the test system is ATP-30 (DNA, aptamer) CGCACCTGGGGGAGTATTGCGGAGGAAGGT
Nature of the assay: ITC, two-site sequential binding. Conditions: 10 mM Mg2+; 10 mM Tris, pH 7.4, 23 °C; site 1 of 2 (KD2 10.1 ± 0.3 μM).

Consider `COC(=O)[C@H]1[C@@H](OC(=O)c2ccccc2)C[C@@H]2CC[C@H]1N2C`, for which the equilibrium dissociation constant (KD) worked out at 12 ± 1.0 µM in assay [1] and 1.6 ± 0.2 µM in assay [2].

In the case of `Nc1ncnc2c1ncn2[C@@H]1O[C@H](COP(=O)(O)OP(=O)(O)OP(=O)(O)O)[C@@H](O)[C@H]1O`, the KD1 stood at 0.6 ± 0.1 µM in assay [3] and 0.8 ± 0.1 µM in assay [4].
